According to ChEMBL document CHEMBL5038656, “5-C-Branched Deoxynojirimycin: Strategy for Designing a 1-Deoxynojirimycin-Based Pharmacological Chaperone with a Nanomolar Affinity for Pompe Disease” (J Med Chem, 2022):

Molecular target: not listed separately
Assay: Inhibition of Lysosomal alpha-glucosidase in Aspergillus niger
Settings: not given

SMILES | IC50
OC[C@H]1NC[C@@H](O)[C@H]1O | 190 nM

Molecular target: T1, Lysosomal alpha-glucosidase (Homo sapiens, UniProt P10253)
Assay: Inhibition of human GAA using 4-methylumbelliferyl-alpha-D-glucopyranoside as substrate preincubated for 45 min followed by substrate addition and measured after 30 min by fluorescence spectrophotometer analysis
Settings: not given

SMILES | Ki
CCC[C@]1(CO)NC[C@H](O)[C@@H](O)[C@@H]1O | 59 nM
CCCN1C[C@H](O)[C@@H](O)[C@H](O)[C@H]1CO | 360 nM
CCCC[C@]1(CO)NC[C@H](O)[C@@H](O)[C@@H]1O | 37 nM
CC[C@]1(CO)NC[C@H](O)[C@@H](O)[C@@H]1O | 6000 nM
CCN1C[C@H](O)[C@@H](O)[C@H](O)[C@H]1CO | 210 nM
CCCCN1C[C@H](O)[C@@H](O)[C@H](O)[C@H]1CO | 200 nM
CCCCCCCN1C[C@H](O)[C@@H](O)[C@H](O)[C@H]1CO | 95 nM
C[C@]1(CO)NC[C@H](O)[C@@H](O)[C@@H]1O | 37000 nM
CCCCC[C@]1(CO)NC[C@H](O)[C@@H](O)[C@@H]1O | 19 nM
CCCCCCC[C@@]1(CO)NC[C@H](O)[C@@H](O)[C@@H]1O | 2500 nM
CCCCCCC[C@]1(CO)NC[C@H](O)[C@@H](O)[C@@H]1O | 4.7 nM
CCCCCCN1C[C@H](O)[C@@H](O)[C@H](O)[C@H]1CO | 130 nM
CCCCCC[C@]1(CO)NC[C@H](O)[C@@H](O)[C@@H]1O | 6.1 nM
CCCCCN1C[C@H](O)[C@@H](O)[C@H](O)[C@H]1CO | 210 nM

Molecular target: not listed separately
Assay: Inhibition of Maltase (unknown origin)
Set-up: species or system Homo sapiens
Settings: not given

SMILES | IC50
OC[C@H]1NC[C@@H](O)[C@@H]1O | 55000 nM

Molecular target: Sucrase-isomaltase, intestinal (Homo sapiens, UniProt P14410)
Assay: Inhibition of Sucrase (unknown origin)
Settings: not given

Sequence of Sucrase-isomaltase, intestinal (P14410 2-1007 limits assumed): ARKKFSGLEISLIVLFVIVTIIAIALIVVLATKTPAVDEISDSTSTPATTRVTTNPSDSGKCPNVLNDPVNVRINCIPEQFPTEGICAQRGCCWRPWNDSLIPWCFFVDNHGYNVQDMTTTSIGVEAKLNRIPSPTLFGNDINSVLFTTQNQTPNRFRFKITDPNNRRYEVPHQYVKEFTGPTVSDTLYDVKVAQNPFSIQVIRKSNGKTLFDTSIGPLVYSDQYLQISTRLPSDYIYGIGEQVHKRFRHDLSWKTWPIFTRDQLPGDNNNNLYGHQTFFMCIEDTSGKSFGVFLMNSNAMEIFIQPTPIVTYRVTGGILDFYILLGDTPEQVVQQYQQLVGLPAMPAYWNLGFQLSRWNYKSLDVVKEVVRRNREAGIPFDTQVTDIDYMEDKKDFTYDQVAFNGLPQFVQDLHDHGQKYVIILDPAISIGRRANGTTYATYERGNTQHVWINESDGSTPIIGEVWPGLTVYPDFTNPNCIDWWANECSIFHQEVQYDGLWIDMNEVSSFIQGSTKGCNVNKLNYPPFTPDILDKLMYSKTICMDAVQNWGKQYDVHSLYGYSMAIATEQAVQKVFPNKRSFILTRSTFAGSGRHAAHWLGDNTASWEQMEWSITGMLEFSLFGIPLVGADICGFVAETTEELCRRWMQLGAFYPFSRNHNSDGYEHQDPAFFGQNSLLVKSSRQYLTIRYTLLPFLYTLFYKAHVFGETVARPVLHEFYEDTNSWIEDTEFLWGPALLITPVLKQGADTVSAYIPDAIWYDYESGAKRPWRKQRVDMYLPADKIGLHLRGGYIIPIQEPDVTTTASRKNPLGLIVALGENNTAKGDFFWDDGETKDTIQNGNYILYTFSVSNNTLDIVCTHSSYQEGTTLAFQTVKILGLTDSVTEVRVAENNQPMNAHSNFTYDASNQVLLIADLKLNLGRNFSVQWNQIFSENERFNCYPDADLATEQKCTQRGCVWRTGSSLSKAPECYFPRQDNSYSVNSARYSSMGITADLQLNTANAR
Sequence of Sucrase-isomaltase, intestinal (P14410 1008-1827 limits assumed): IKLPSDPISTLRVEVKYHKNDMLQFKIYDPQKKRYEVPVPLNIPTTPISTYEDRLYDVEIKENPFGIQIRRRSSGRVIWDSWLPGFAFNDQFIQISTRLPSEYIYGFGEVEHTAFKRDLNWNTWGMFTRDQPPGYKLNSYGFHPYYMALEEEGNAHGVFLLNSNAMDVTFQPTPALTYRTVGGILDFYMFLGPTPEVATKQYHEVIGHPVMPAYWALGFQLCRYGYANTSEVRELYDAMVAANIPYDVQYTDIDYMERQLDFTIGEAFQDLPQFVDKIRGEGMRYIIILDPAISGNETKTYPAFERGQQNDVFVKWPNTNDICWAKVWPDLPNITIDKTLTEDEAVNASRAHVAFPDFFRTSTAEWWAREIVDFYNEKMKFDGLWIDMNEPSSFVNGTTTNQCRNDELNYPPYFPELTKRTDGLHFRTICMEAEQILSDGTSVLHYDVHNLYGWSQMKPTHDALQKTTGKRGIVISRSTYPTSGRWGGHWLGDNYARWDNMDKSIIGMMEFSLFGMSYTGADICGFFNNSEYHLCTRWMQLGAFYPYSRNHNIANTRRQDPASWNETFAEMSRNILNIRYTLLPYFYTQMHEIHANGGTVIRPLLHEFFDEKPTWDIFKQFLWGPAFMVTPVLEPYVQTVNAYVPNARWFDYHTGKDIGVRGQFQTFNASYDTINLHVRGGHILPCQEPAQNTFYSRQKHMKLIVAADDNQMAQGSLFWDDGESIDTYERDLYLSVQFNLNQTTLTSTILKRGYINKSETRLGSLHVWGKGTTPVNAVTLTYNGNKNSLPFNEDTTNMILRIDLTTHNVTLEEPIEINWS

SMILES | IC50
OC[C@@H]1NC[C@H](O)[C@H]1O | 1000 nM

Molecular target: not listed separately
Assay: Inhibition of Penicillium decumbens Alpha-L-rhamnosidase
Settings: not given

SMILES | IC50
O[C@@H]1[C@@H]2[C@@H](O)[C@H](O)[C@@H](O)CN2C[C@@H]1O | 530000 nM

Molecular target: not listed separately
Assay: Inhibition of Endoplasmic reticulum alpha-glucosidase (unknown origin)
Set-up: species or system Homo sapiens
Settings: not given

SMILES | IC50
OC[C@H]1NC[C@H](O)[C@@H](O)[C@@H]1O [DUVOGLUSTAT] | 1400 nM

Molecular target: not listed separately
Assay: Inhibition of Glycosidase (unknown origin)
Set-up: species or system Homo sapiens
Settings: not given

SMILES | IC50
C[C@@H]1NC[C@@H](O)[C@H](O)[C@]1(C)O | 50000 nM
C[C@]1(CO)NC[C@H](O)[C@@H](O)[C@@H]1O | 1000 nM
C[C@@]1(O)CN[C@H](CO)[C@@H]1O | 12000 nM
C[C@@]1(O)[C@H](O)CN[C@@H]1CO | 800 nM
C[C@]1(O)CN2C[C@H](O)[C@H](O)[C@@H]2[C@@H](O)[C@@H]1O | 200 nM

Molecular target: not listed separately
Assay: Inhibition of rat intestinal maltase
Settings: not given

SMILES | IC50
C[C@]1(CO)NC[C@@H](O)[C@@H]1O | 740 nM

Molecular target: T1, Lysosomal alpha-glucosidase
Settings: dose 10.0 µM
Description: Stabilization of recombinant human GAA using 4-methylumbelliferyl-alpha-D-glucopyranoside as substrate assessed as relative fluorescence intensity by measuring midpoint temperature protein denaturation at 10 uM by thermal shift assay (Rvb = 58.6 degC)

SMILES | Tm
CCCC[C@]1(CO)NC[C@H](O)[C@@H](O)[C@@H]1O | 70.2 °C
C[C@]1(CO)NC[C@H](O)[C@@H](O)[C@@H]1O | 69.5 °C
